# Test results as given in patent US8119128B2, “Antibodies that bind urokinase-type plasminogen activator and epitopes therefor” (The Regents of the University of Colorado, a body corporate, priority 2004, dated 2012).
# B1: KD: purified kringle domain of uPA (amino acids 47-135), SEQ ID NO:2 epitope (protein)
# chain: SKTCYEGNGHFYRGKASTDTMGRPCLPWNSATVLQQTYHAHRSDALQLGLGKHNYCRNPDNRRRPWCYVQVGLKPLVQECMVHDCA
# Tests used:
# Format in all cases: cell-based, mouse
# [1] = system: integrins; assay: RGD or RGE peptide added to neutrophil cultures containing uPA and LPS; details: LPS 10 ng/ml, scuPA 10 nM, peptide 50 μM, 4 hours; FIG. 7
# Description: (§1) Isolation of neutrophils. Neutrophils were purified from bone marrow cell suspensions as previously described by Abraham, et al., J Immunol 170:5644 (2003), Asehnoune, et al., J Immunol 172:2522 (2004), and Strassheim, et al., Am J Physiol Cell Physiol 286:C683 (2004). Briefly summarized, to obtain the bone marrow cell suspension, the femur and tibia of a mouse were flushed with 5 ml RPMI 1640/penicillin/streptomycin and the cells passed through a glass wool column, and pelleted by centrifugation at 1000 rpm for 10 minutes. The cell pellets were resuspended in 0.3% FCS/PBS and then incubated with 20 μl of primary antibodies specific for cell surface markers F4/80, CD4, CD45R, CD5, and TER19 for 15 minutes, rotating at 4° C. This custom cocktail (Stem Cell Technologies, Vancouver, British Columbia) is specific for T and B cells, RBC, monocytes and macrophages. Anti-biotin tetrameric antibody complexes (100 μl) were then added, and the cells incubated for 15 minutes, rotating at 4° C. Following this, 60 μl of colloidal magnetic dextran iron particles was added to the suspension and incubated for 15 minutes, rotating at 4° C. The entire cell suspension was then placed into a column, surrounded by a magnet. The T cells, B cells, RBC, monocytes and macrophages were captured in the column, allowing the neutrophils to pass through by negative selection methods. Neutrophil purity, as determined by Wright's stained cytospin preparations, was greater than 97%. Cell viability, as determined by trypan blue exclusion, was consistently greater than 98%.
# (§2) Real time quantitative RT-PCR. Quantitative RT-PCR to measure neutrophil cytokine expression was performed as previously described by Abraham, et al., J Immunol 170:5644 (2003), and Park, et al., Am J Physiol Cell Physiol 284:C870 (2003). […] For each mRNA detected, a fluorogenic probe and two primers (forward and reverse) for PCR were synthesized (Applied Biosystems, Foster City, Calif.). […]
# [2] = system: LPS stimulated neutrophils; assay: LPS-induced cytokine mRNA expression in neutrophils, quantitative RT-PCR; details: LPS 10 ng/ml, protein 10 nM, 4 hours; FIG. 1-4
# Description: Isolation of neutrophils. Neutrophils were purified from bone marrow cell suspensions as previously described by Abraham, et al., J Immunol 170:5644 (2003), Asehnoune, et al., J Immunol 172:2522 (2004), and Strassheim, et al., Am J Physiol Cell Physiol 286:C683 (2004). Briefly summarized, to obtain the bone marrow cell suspension, the femur and tibia of a mouse were flushed with 5 ml RPMI 1640/penicillin/streptomycin and the cells passed through a glass wool column, and pelleted by centrifugation at 1000 rpm for 10 minutes. […] Neutrophil purity, as determined by Wright's stained cytospin preparations, was greater than 97%. Cell viability, as determined by trypan blue exclusion, was consistently greater than 98%.
# as §2
# All reagents used in the one step RT-PCR reactions were purchased from Applied Biosystems. […] The amount of cytokine mRNA was determined from a standard curve with 10 fold dilutions of known amounts of target RNA for each primer and probe set. […]
# [3] = system: LPS stimulated neutrophils; assay: Cytokine ELISA of culture supernatants of LPS stimulated neutrophils; details: LPS 10 ng/ml, protein 10 nM, 4 hours, FIG. 5
# Description: as §1, with “Anti-biotin tetrameric antibody complexes (100 μl) were then added, and the cells incubated for 15 minutes, rotating at 4° C. Following this, 60 μl of colloidal magnetic dextran iron particles was added to the suspension and incubated for 15 minutes, rotating at 4° C. The entire cell suspension was then placed into a column, surrounded by a magnet. The T cells, B cells, RBC, monocytes and macrophages were captured in the column, allowing the neutrophils to pass through by negative selection methods.” left out
# Cytokine ELISA. Immunoreactive TNF-α, IL-1β, and MIP-2 were quantified using commercially available ELISA kits (R&D Systems, Minneapolis, Minn.), according to manufacturer's instructions and as described previously by Yum, et al., J Immunol 167:6601 (2001). […]
molecule,measurement,setting,value
RGE: RGE peptide that serves as a control,uPA-induced potentiation of neutrophil responses,[1],not
"ATF: amino terminal fragment of uPA, which contains the uPA GFD and KD","enhancement of LPS-induced cytokine mRNA expression (IL-1β, TNF-α, MIP-2) compared with scuPA",[2],to the same extent as did scuPA
RGD: RGD peptide that blocks interactions with integrins,"increased production of IL-1β, TNF-α, and MIP-2 produced by co-culture of LPS stimulated neutrophils with scuPA",[1],prevented
same,uPA-induced potentiation of neutrophil responses,[1],blocked
B1,"neutrophil production (secretion) of IL-1β, TNF-α, and MIP-2",[3],to the same extent as did intact scuPA
same,"enhancement of LPS-induced cytokine mRNA expression (IL-1β, TNF-α, MIP-2) compared with scuPA",[2],to the same extent or even a greater extent than did scuPA
